Results: patent publication US6936602B1, “Benzazepine derivatives, process for the preparation of the same and uses thereof” (Takeda Chemical Industries, Ltd., priority 1999, dated 2005)

melting point	Structure (SMILES)
144 to 147 °C	CCCN1CCC(C(=O)Nc2ccc(CN(C)C3CCOCC3)cc2)=Cc2cc(-c3ccc(OCCOCC)cc3)ccc21 [Compound 25, 7-[4-(2-ethoxyethoxy)phenyl]-N-[4-[[N-methyl-N-(tetrahydro-2H-pyran-4-yl)amino]methyl]phenyl]-1-propyl-2,3-dihydro-1H-1-benzazepine-4-carboxamide]
118 to 119 °C	CCCOCCOc1ccc(-c2ccc3c(c2)C=C(C(=O)Nc2ccc(CN(C)C4CCOCC4)cc2)CCN3Cc2ccccc2OC)cc1 [Compound 51, 1-(2-methoxybenzyl)-N-[4-[[N-methyl-N-(tetrahydropyran-4-yl)amino]methyl]phenyl]-7-(4-propoxyethoxyphenyl)-2,3-dihydro-1-benzazepine-4-carboxamide]
113 to 114 °C	CCCOCCOc1ccc(-c2ccc3c(c2)C=C(C(=O)Nc2ccc(CN(C)C4CCOCC4)cc2)CCN3Cc2cccc(OC)c2)cc1 [Compound 53, 1-(3-methoxybenzyl)-N-[4-[[N-methyl-N-(tetrahydropyran-4-yl)amino]methyl]phenyl]-7-(4-propoxyethoxyphenyl)-2,3-dihydro-1-benzazepine-4-carboxamide]
223 to 224 °C	CCCOCCOc1ccc(-c2ccc3c(c2)C=C(C(=O)Nc2ccc(CN(C)C4CCOCC4)cc2)CCN3c2ccccc2)cc1.Cl
157 to 158 °C	CCOCCN(C)c1ccc(-c2ccc3c(c2)C=C(C(=O)Nc2ccc(CN(C)C4CCOCC4)cc2)CCN3C=O)cc1 [Compound 4, 7-[4-[N-(2-ethoxyethyl)-N-methylamino]phenyl]-1-formyl-N-[4-[[N-methyl-N-(tetrahydro-2H-pyran-4-yl)amino]methyl]phenyl]-2,3-dihydro-1H-1-benzazepine-4-carboxamide]
115 to 116 °C	CCCOCCOc1ccc(-c2ccc3c(c2)C=C(C(=O)Nc2ccc(CN(C)C4CCOCC4)cc2)CCN3Cc2ccoc2)cc1 [Compound 61, 1-(3-furylmethyl)-N-[4-[[N-methyl-N-(tetrahydropyran-4-yl)amino]methyl]phenyl]-7-(4-propoxyethoxyphenyl)-2,3-dihydro-1-benzazepine-4-carboxamide]
162 to 164 °C	CCOCCN(CC)c1ccc(-c2ccc3c(c2)C=C(C(=O)Nc2ccc(CN(C)C4CCOCC4)cc2)CCN3C=O)cc1 [Compound 5, 7-[4-[N-(2-ethoxyethyl)-N-ethylamino]phenyl]-1-formyl-N-[4-[[N-methyl-N-(tetrahydro-2H-pyran-4-yl)amino]methyl]phenyl]-2,3-dihydro-1H-1-benzazepine-4-carboxamide]
98 to 100 °C	CCOCCCOc1ccc(-c2ccc3c(c2)C=C(C(=O)Nc2ccc(CN(C)C4CCOCC4)cc2)CCN3C)cc1 [Compound 13, 7-[4-(3-ethoxypropoxy)phenyl]-1-methyl-N-[4-[[N-methyl-N-(tetrahydro-2H-pyran-4-yl)amino]methyl]phenyl]-2,3-dihydro-1H-1-benzazepine-4-carboxamide]
136 to 138 °C	CCCOCCOc1ccc(-c2ccc3c(c2)C=C(C(=O)Nc2ccc(CN(C)C4CCOCC4)cc2)CCN3C)cc1 [Compound 12, 1-methyl-N-[4-[[N-methyl-N-(tetrahydro-2H-pyran-4-yl)amino]methyl]phenyl]-7-[4-(2-propoxyethoxy)phenyl]-2,3-dihydro-1H-benzazepine-4-carboxamide]

Structure (SMILES)	melting point
CCCCOCCOc1ccc(-c2ccc3c(c2)C=C(C(=O)Nc2ccc(CN(C)C4CCOCC4)cc2)CCN3C)cc1 [Compound 18, 7-[4-(2-butoxyethoxy)phenyl]-1-methyl-N-[4-[[N-methyl-N-(tetrahydro-2H-pyran-4-yl)amino]methyl]phenyl]-2,3-dihydro-1H-1-benzazepine-4-carboxamide]	107 to 110 °C
CCCCOCCOc1ccc(-c2ccc3c(c2)C=C(C(=O)Nc2ccc(CN(C)C4CCOCC4)cc2)CCN3c2cccc(OC)c2)cc1 [Compound 40, 7-[4-(2-butoxyethoxy)phenyl]-1-(3-methoxyphenyl)-N-(4-[[N-methyl-N-(tetrahydro-2H-pyran-4-yl)amino]methyl]phenyl]-2,3-dihydro-1H-1-benzazepine-4-carboxamide]	94 to 97 °C
